Results from patent US4127656A, “Method of inhibiting lipogensis with 3-(benzoyl)oxiranecarboxamides” (Shell Oil Company, priority 1978, dated 1978).

Columns and labels:
lipogenesis (liver) [1] = test: inhibition of glucose incorporation into lipid in chicken liver tissue slices; assay type: cell-based; settings: 100 micrograms per milliliter, 37° C., 2 hours
Excerpt: (§1) The manner in which they cause this effect is not known with certainty; it is believed that they interfere with the synthesis of fatty acids in the tissues. Their effectiveness for this purpose has been ascertained by immersing samples of animal liver or adipose tissue in a liquid medium containing radioactive glucose and the test chemical, for a period of time, then isolating the lipid from the treated tissues and determining the up-take of the radioactive carbon by means of scintillation counting techniques. These tests were conducted in both liver and adipose tissue, because in some animals the primary site of lipogenesis appears to be liver tissue, while in others it appears to be adipose tissue. The test animals were pigs, chickens and sheep.
(§2) Described in more detail, the tests were conducted according to the following general procedure: […]
(§3) The incubation was terminated by addition of 0.25 milliliter of 1 N sulfuric acid. […] The extracts were washed according to Folch et al. (J. Biol. Chem., 226, 497-509, (1957)), air dried, and counted in a liquid scintillation counter with 15 milliliters of counting fluid (two parts toluene containing 0.4% w/v New England Nuclear Omnifluor:one part Triton X-100). […] From the date obtained were calculated the percent inhibition of lipid synthesis by the test compounds in each case. […]

[2] = test system: lipogenesis (swine adipose tissue); test: inhibition of lipogenesis from glucose-U-14C in pig adipose tissue slices (percent inhibition of lipid synthesis); assay type: cell-based, pig (swine); settings: Sus scrofa, 100 micrograms per milliliter, 37° C., 2 hours, triplicate, read-out: Percent Inhibition (of lipogenesis compared to control)
Excerpt: as §1
Described in more detail, the tests were conducted according to the following general procedure:
Tissue slices (200 milligrams for liver and 150 milligrams for adipose tissue) were incubated at 37° C. for 2 hours with shaking in 3 milliliters of Krebs-Ringer bicarbonate solution containing one-half the normal calcium ion concentration, 60 micromoles of glucose, 0.5 microCurie of glucose-U^14 C., 300 microunits of insulin, and 5% dimethyl sulfoxide (DMSO). The test compounds were added as a suspension in DMSO and were present at a concentration of 100 micrograms per milliliter of the incubation mixture.
The incubation was terminated by addition of 0.25 milliliter of 1 N sulfuric acid. The resulting mixture was extracted with a total of 25 milliliters of chloroform:methanol (2:1, v/v). The extracts were washed according to Folch et al. (J. Biol. Chem., 226, 497-509, (1957)), air dried, and counted in a liquid scintillation counter with 15 milliliters of counting fluid (two parts toluene containing 0.4% w/v New England Nuclear Omnifluor:one part Triton X-100). The tests were conducted in triplicate and were accompanied by control tests in which all ingredients,proportions and conditions were the same except that no test compound was included. From the date obtained were calculated the percent inhibition of lipid synthesis by the test compounds in each case.
Compound 1 was tested with respect to all of the animals. The other compounds were tested only with respect to the pig.
From these and other tests, it has been established that in pigs there is little lipogenic activity in the liver tissue. From these and other tests, it also has been established that swine adipose tissue utilizes glucose for lipogenesis, and to be the major site of fatty acid synthesis. The data obtained from the tests using adipose tissue and glucose are set out in Table 1, as the percent inhibition of lipogenesis compared to the results obtained in the control tests wherein only the test compound was omitted.

lipogenesis (liver) [3] = test: inhibition of glucose incorporation into lipid in sheep liver tissue slices; assay type: cell-based; settings: 100 micrograms per milliliter, 37° C., 2 hours
Excerpt: as §1, §2, §3

[4] = test system: lipogenesis (adipose tissue); test: inhibition of glucose incorporation into lipid in sheep adipose tissue slices; assay type: cell-based; settings: 100 micrograms per milliliter, 37° C., 2 hours
Excerpt: as §1, §2, §3

Row | Compound | inhibition at 100 µg/mL [2] [%] | also measured
1 | NC(=O)[C@@H]1O[C@H]1C(=O)c1ccc(Cl)cc1 (relative stereo) [Compound 1, 3-(4-chlorobenzoyl)oxiranecarboxamide(trans)] | 94 | inhibition of glucose incorporation into the liver (lipogenesis (liver) [1]): 54%; inhibition of glucose incorporation in the liver (lipogenesis (liver) [3]): 15%; inhibition of glucose incorporation in adipose tissue [4]: 65%
2 | CN(C)C(=O)[C@@H]1O[C@H]1C(=O)c1ccc(Cl)cc1 (relative stereo) [Compound 2, 3-(4-chlorobenzoyl)-N,N-dimethyloxiranecarboxamide(trans)] | 70 | –
3 | CNC(=O)[C@@H]1O[C@H]1C(=O)c1ccc(Cl)cc1 (relative stereo) [Compound 3, 3-(4-chlorobenzoyl)-N-methyloxiranecarboxamide(trans)] | 96 | –
4 | NC(=O)[C@@H]1O[C@H]1C(=O)c1ccc(Cl)c(Cl)c1 (relative stereo) [Compound 4, 3-(3,4-dichlorobenzoyl)oxiranecarboxamide(trans)] | 96 | –
5 | Cc1ccc(C(=O)[C@@H]2O[C@H]2C(N)=O)cc1 (relative stereo) [Compound 5, 3-(4-methylbenzoyl)oxiranecarboxamide(trans)] | 89 | –
6 | NC(=O)[C@@H]1O[C@H]1C(=O)c1ccccc1 (relative stereo) [Compound 6, 3-(benzoyl)oxiranecarboxamide(trans)] | 91 | –
7 | CC(C)NC(=O)[C@@H]1O[C@H]1C(=O)c1ccc(Cl)cc1 (relative stereo) [Compound 7, 3-(4-chlorobenzoyl)-N-(1-methylethyl)oxiranecarboxamide(trans)] | 90 | –
8 | NC(=O)[C@@H]1O[C@H]1C(=O)c1cccc([N+](=O)[O-])c1 (relative stereo) [Compound 8, 3-(3-nitrobenzoyl)oxiranecarboxamide(trans)] | 96 | –
9 | C=CCNC(=O)[C@@H]1O[C@H]1C(=O)c1ccc(Cl)cc1 (relative stereo) [Compound 9, 3-(4-chlorobenzoyl)-N-(2-propenyl)oxiranecarboxamide(trans)] | 94 | –
10 | O=C(c1ccc(Cl)cc1)[C@@H]1O[C@H]1C(=O)N1CCOCC1 (relative stereo) [Compound 10, (4-chlorophenyl) (3-(4-morpholinylcarbonyl)oxiranyl)methanone(trans)] | 77 | –
11 | CC(=O)Nc1ccc(C(=O)[C@@H]2O[C@H]2C(N)=O)cc1 (relative stereo) [Compound 11, 3-(4-acetamidobenzoyl)oxiranecarboxamide(trans)] | 23 | –
12 | COc1ccc(C(=O)[C@@H]2O[C@H]2C(N)=O)cc1 (relative stereo) [Compound 12, 3-(4-methoxybenzoyl)oxiranecarboxamide(trans)] | 64 | –
13 | C#CCNC(=O)[C@@H]1O[C@H]1C(=O)c1ccc(Cl)cc1 (relative stereo) [Compound 13, 3-(4-chlorobenzoyl)-N-(2-propynyl)oxiranecarboxamide(trans)] | 87 | –
14 | NC(=O)[C@@H]1O[C@H]1C(=O)c1ccc(Br)cc1 (relative stereo) [Compound 14, 3-(4-bromobenzoyl)oxiranecarboxamide(trans)] | 90 | –
15 | NC(=O)[C@@H]1O[C@H]1C(=O)c1ccc(F)cc1 (relative stereo) [Compound 15, 3-(4-fluorobenzoyl)oxiranecarboxamide(trans)] | 90 | –
16 | NC(=O)[C@@H]1O[C@H]1C(=O)c1ccc(Cl)cc1Cl (relative stereo) [Compound 16, 3-(2,4-dichlorobenzoyl)oxiranecarboxamide(trans)] | 91 | –
17 | NC(=O)[C@@H]1O[C@H]1C(=O)c1cccc(C(F)(F)F)c1 (relative stereo) [Compound 17, 3-(3-(trifluoromethyl)benzoyl)oxiranecarboxamide(trans)] | 94 | –
